Laboratory results taken from patent US6117661A, “Mutant mono-oxygenase cytochrome P450cam” (BG plc, priority 1995, dated 2000).

B1: wild-type P-450cam: mono-oxygenase cytochrome P-450cam from P. putida (protein, UniProt P00183 2-415, looked up)
Camphor 5-monooxygenase: TTETIQSNANLAPLPPHVPEHLVFDFDMYNPSNLSAGVQEAWAVLQESNVPDLVWTRCNGGHWIATRGQLIREAYEDYRHFSSECPFIPREAGEAYDFIPTSMDPPEQRQFRALANQVVGMPVVDKLENRIQELACSLIESLRPQGQCNFTEDYAEPFPIRIFMLLAGLPEEDIPHLKYLTDQMTRPDGSMTFAEAKEALYDYLIPIIEQRRQKPGTDAISIVANGQVNGRPITSDEAKRMCGLLLVGGLDTVVNFLSFSMEFLAKSPEHRQELIERPERIPAACEELLRRFSLVADGRILTSDYEFHGVQLKKGDQILLPQMLSGLDERENACPMHVDFSRQKVSHTTFGHGSHLCLGQHLARREIIVTLKEWLTRIPDFSIAPGAQIQHKSGIVSGVQALPLVWDPATTKAV
B2: C58A: P-450cam surface mutant, cysteine 58 substituted to alanine (protein, UniProt P00183 2-415, looked up, variant C58A)
Camphor 5-monooxygenase: TTETIQSNANLAPLPPHVPEHLVFDFDMYNPSNLSAGVQEAWAVLQESNVPDLVWTRANGGHWIATRGQLIREAYEDYRHFSSECPFIPREAGEAYDFIPTSMDPPEQRQFRALANQVVGMPVVDKLENRIQELACSLIESLRPQGQCNFTEDYAEPFPIRIFMLLAGLPEEDIPHLKYLTDQMTRPDGSMTFAEAKEALYDYLIPIIEQRRQKPGTDAISIVANGQVNGRPITSDEAKRMCGLLLVGGLDTVVNFLSFSMEFLAKSPEHRQELIERPERIPAACEELLRRFSLVADGRILTSDYEFHGVQLKKGDQILLPQMLSGLDERENACPMHVDFSRQKVSHTTFGHGSHLCLGQHLARREIIVTLKEWLTRIPDFSIAPGAQIQHKSGIVSGVQALPLVWDPATTKAV
B3: C85A: P-450cam surface mutant, cysteine 85 substituted to alanine (protein, UniProt P00183 2-415, looked up, variant C85A)
Camphor 5-monooxygenase: TTETIQSNANLAPLPPHVPEHLVFDFDMYNPSNLSAGVQEAWAVLQESNVPDLVWTRCNGGHWIATRGQLIREAYEDYRHFSSEAPFIPREAGEAYDFIPTSMDPPEQRQFRALANQVVGMPVVDKLENRIQELACSLIESLRPQGQCNFTEDYAEPFPIRIFMLLAGLPEEDIPHLKYLTDQMTRPDGSMTFAEAKEALYDYLIPIIEQRRQKPGTDAISIVANGQVNGRPITSDEAKRMCGLLLVGGLDTVVNFLSFSMEFLAKSPEHRQELIERPERIPAACEELLRRFSLVADGRILTSDYEFHGVQLKKGDQILLPQMLSGLDERENACPMHVDFSRQKVSHTTFGHGSHLCLGQHLARREIIVTLKEWLTRIPDFSIAPGAQIQHKSGIVSGVQALPLVWDPATTKAV
B4: C136A: P-450cam surface mutant, cysteine 136 substituted to alanine (protein, UniProt P00183 2-415, looked up, variant C136A)
Camphor 5-monooxygenase: TTETIQSNANLAPLPPHVPEHLVFDFDMYNPSNLSAGVQEAWAVLQESNVPDLVWTRCNGGHWIATRGQLIREAYEDYRHFSSECPFIPREAGEAYDFIPTSMDPPEQRQFRALANQVVGMPVVDKLENRIQELAASLIESLRPQGQCNFTEDYAEPFPIRIFMLLAGLPEEDIPHLKYLTDQMTRPDGSMTFAEAKEALYDYLIPIIEQRRQKPGTDAISIVANGQVNGRPITSDEAKRMCGLLLVGGLDTVVNFLSFSMEFLAKSPEHRQELIERPERIPAACEELLRRFSLVADGRILTSDYEFHGVQLKKGDQILLPQMLSGLDERENACPMHVDFSRQKVSHTTFGHGSHLCLGQHLARREIIVTLKEWLTRIPDFSIAPGAQIQHKSGIVSGVQALPLVWDPATTKAV
B5: C148A: P-450cam surface mutant, cysteine 148 substituted to alanine (protein, UniProt P00183 2-415, looked up, variant C148A)
Camphor 5-monooxygenase: TTETIQSNANLAPLPPHVPEHLVFDFDMYNPSNLSAGVQEAWAVLQESNVPDLVWTRCNGGHWIATRGQLIREAYEDYRHFSSECPFIPREAGEAYDFIPTSMDPPEQRQFRALANQVVGMPVVDKLENRIQELACSLIESLRPQGQANFTEDYAEPFPIRIFMLLAGLPEEDIPHLKYLTDQMTRPDGSMTFAEAKEALYDYLIPIIEQRRQKPGTDAISIVANGQVNGRPITSDEAKRMCGLLLVGGLDTVVNFLSFSMEFLAKSPEHRQELIERPERIPAACEELLRRFSLVADGRILTSDYEFHGVQLKKGDQILLPQMLSGLDERENACPMHVDFSRQKVSHTTFGHGSHLCLGQHLARREIIVTLKEWLTRIPDFSIAPGAQIQHKSGIVSGVQALPLVWDPATTKAV

Assays:
[1] = biological target: T1, P450cam WT (Pseudomonas putida, UniProt P00183); experiment: Product distribution following oxidation of substrates (GC); format: biochemical, P. putida; conditions: substrate cyclohexylbenzene; label = product
T1 construct: reconstituted with putidaredoxin and putidaredoxin reductase
Method: (§1) A buffered solution (50 mM Tris.HCI, pH 7.4), typically 3 ml in volume, containing 10 uM putidaredoxin, 2 uM putidaredoxin reductase, 1 uM cytochrome P-450cam mono-oxygenase (wild-type or mutant), 200 mM KCI, 50 ug/ml bovine liver catalase (Sigma), and 1 mM target organic compound such as cyclohexylbenzene (added as a 0.1 M stock in ethanol) was preincubated at 30° C. for 5 minutes. The enzymatic reaction was initiated by adding NADH to a total concentration of 2 mM. Further four aliquots of NADH (to increase the NADH concentration by 1 mM each time) were added in intervals of 10 minutes, and 30 minutes into the incubation one aliquot of substrate (to increase the concentration by 1 mM) was also added. The reaction was quenched after 60 minutes by adding 0.5 ml chloroform and vortexing the mixture. The phases were separated by centrifugation (4000 g) at 4° C. The chloroform layer was analyzed by gas chromatography.
(§2) For many substrate compounds such as cyclohexylbenzene for which not all the P-450cam-mediated oxidation products are commercially available, the chloroform extracts are evaporated to dryness under a stream of nitrogen. The residues were extracted with hexane and the oxidation products separated by high performance liquid chromatography, eluting with a hexane/isopropanol gradient. The purified products were then identified by mass spectroscopy and particularly nuclear magnetic resonance spectroscopy.
(§3) The NADH concentration can be monitored at 340 nm and, in all cases, more substrates and NADH are added during the incubation.

[2] = biological target: T2, P450cam active site mutant Y96L (also C334A) (Pseudomonas putida, UniProt P00183, C335A/Y97L); format: biochemical, P. putida; conditions: substrate cyclohexylbenzene; label = product
T2 construct: reconstituted with putidaredoxin and putidaredoxin reductase
Method: as §1, §2, §3

[3] = biological target: T3, P450cam active site mutant Y96F (also C334A) (Pseudomonas putida, UniProt P00183, C335A/Y97F); format: biochemical, P. putida; conditions: substrate cyclohexylbenzene; label = product
T3 construct: reconstituted with putidaredoxin and putidaredoxin reductase
Method: as §1, §2, §3

[4] = biological target: T4, P450cam active site mutant Y96V (also C334A) (Pseudomonas putida, UniProt P00183, C335A/Y97V); format: biochemical, P. putida; conditions: substrate cyclohexylbenzene; label = product
T4 construct: reconstituted with putidaredoxin and putidaredoxin reductase
Method: as §1, §2, §3

[5] = biological target: T5, P450cam active site mutant Y96A (also C334A) (Pseudomonas putida, UniProt P00183, C335A/Y97A); format: biochemical, P. putida; conditions: substrate cyclohexylbenzene; label = product
T5 construct: reconstituted with putidaredoxin and putidaredoxin reductase
Method: as §1, §2, §3

[6] = biological target: T6, Wild type P450cam (Pseudomonas putida, UniProt P00183); experiment: Turnover rate measured as NADH consumption rate; format: biochemical, P. putida; conditions: small alkanes; background about 0.07
Method: as §1, §3
(§4) Turnover rate measured as NADH consumption rate
(§5) (nmole NADH/nmole P450cam/s).

[7] = biological target: T7, P450cam Y96A (also contains the C334A mutation) (Pseudomonas putida, UniProt P00183, C335A/Y97A); format: biochemical, P. putida; conditions: small alkanes
T7 construct: reconstituted with putidaredoxin and putidaredoxin reductase
Method: as §1, §3, §4, §5

[8] = biological target: T6, Wild type P450cam; format: binding, P. putida
[9] = biological target: P450cam Mutant Y96A (Pseudomonas putida, UniProt P00183, C335A/Y97A); format: binding, P. putida; conditions: for Mutant Y96A ΔSpin high/low: -- = no shift, nd = not determined
[10] = Protein aggregation upon standing/storage; format: physicochemical; conditions: storage at 4° C., and even in 50% glycerol solutions at -20° C.
Source text: The C334A mutation has the obvious benefit of removing unwanted protein dimerisation, thus ensuring the presence of a single species in solution at all times. In addition, we noted a completely unexpected benefit of this mutation. […] Aggregation will also occur during turnover, especially at the higher P-450cam concentrations required in any economically viable industrial application in, for example, synthesis of organic molecules. […] Thus, the C334A mutation has beneficial effects in protein handling, storage, and increased catalyst lifetime.

[11] = Protein dimerisation by anion exchange FPLC and gel filtration; format: physicochemical; conditions: Resource Q FPLC and Superose 12 gel filtration; C334A even at high concentrations (0.1 mM range)
Source text: We concluded that wild-type P-450cam underwent dimerisation by intermolecular S--S disulphide bond formation between the surface cysteine 334 on two protein molecules.

T6 sequence (P00183 whole entry): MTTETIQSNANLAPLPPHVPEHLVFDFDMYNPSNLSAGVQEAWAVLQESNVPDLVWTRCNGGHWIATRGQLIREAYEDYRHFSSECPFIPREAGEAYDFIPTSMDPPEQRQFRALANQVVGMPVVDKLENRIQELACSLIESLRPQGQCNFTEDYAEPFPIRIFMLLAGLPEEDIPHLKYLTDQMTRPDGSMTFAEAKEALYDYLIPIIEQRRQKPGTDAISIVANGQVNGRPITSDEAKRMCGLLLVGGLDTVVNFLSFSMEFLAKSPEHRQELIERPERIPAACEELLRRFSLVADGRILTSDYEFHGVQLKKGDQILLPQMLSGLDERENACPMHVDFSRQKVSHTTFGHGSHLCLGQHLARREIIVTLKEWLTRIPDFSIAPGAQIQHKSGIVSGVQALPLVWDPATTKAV
T6 sequence (P00259 whole entry, further chain): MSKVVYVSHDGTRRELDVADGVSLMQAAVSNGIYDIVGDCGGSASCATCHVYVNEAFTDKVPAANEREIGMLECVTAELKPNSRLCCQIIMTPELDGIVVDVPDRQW
T6 sequence (P16640 whole entry, further chain): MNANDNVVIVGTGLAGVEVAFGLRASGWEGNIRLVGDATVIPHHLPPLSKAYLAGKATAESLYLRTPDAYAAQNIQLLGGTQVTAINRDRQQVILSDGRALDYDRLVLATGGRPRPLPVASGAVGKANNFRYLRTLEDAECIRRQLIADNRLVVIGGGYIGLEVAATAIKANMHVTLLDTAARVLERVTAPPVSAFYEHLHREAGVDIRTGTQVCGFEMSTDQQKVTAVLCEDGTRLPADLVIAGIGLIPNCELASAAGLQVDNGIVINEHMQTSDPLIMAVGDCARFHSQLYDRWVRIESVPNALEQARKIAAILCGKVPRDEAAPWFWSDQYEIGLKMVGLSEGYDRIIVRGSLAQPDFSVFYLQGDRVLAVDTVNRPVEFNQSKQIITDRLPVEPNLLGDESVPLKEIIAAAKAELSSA
T7 sequence (P00183 2-415 Y97A/C335A): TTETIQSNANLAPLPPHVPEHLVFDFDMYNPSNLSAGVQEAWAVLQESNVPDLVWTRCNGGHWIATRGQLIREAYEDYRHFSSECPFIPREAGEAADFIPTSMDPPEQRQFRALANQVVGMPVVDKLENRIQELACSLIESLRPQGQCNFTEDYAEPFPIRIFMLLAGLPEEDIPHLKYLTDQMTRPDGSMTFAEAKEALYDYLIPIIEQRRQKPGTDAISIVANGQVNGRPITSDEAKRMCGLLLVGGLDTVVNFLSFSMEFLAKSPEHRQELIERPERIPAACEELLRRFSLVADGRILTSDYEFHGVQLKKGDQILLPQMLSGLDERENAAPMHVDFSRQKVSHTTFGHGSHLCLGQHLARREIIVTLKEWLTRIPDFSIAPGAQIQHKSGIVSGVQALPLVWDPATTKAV
T7 sequence (P16640 whole entry, further chain): as the sequence (P16640 whole entry, further chain) above
T7 sequence (P00259 whole entry, further chain): as the sequence (P00259 whole entry, further chain) above
Sequence of P450cam Mutant Y96A (P00183 2-415 Y97A/C335A): as the sequence (P00183 2-415 Y97A/C335A) above
Sequence of P450cam Mutant Y96A (P16640 whole entry, further chain): as the sequence (P16640 whole entry, further chain) above
Sequence of P450cam Mutant Y96A (P00259 whole entry, further chain): as the sequence (P00259 whole entry, further chain) above
T3 sequence (P16640 whole entry): as the sequence (P16640 whole entry, further chain) above
T3 sequence (P00183 2-415 Y97F/C335A): as the sequence (P00183 2-415 Y97A/C335A) above, with A96F counted along it
T3 sequence (P00259 whole entry, further chain): as the sequence (P00259 whole entry, further chain) above
T4 sequence (P00183 2-415 Y97V/C335A): as the sequence (P00183 2-415 Y97A/C335A) above, with A96V counted along it
T4 sequence (P00259 whole entry, further chain): as the sequence (P00259 whole entry, further chain) above
T4 sequence (P16640 whole entry, further chain): as the sequence (P16640 whole entry, further chain) above
T1 sequence (P00259 whole entry): as the sequence (P00259 whole entry, further chain) above
T1 sequence (P16640 whole entry, further chain): as the sequence (P16640 whole entry, further chain) above
T1 sequence (P00183 whole entry): as the sequence (P00183 whole entry) above
T5 sequence (P00183 2-415 Y97A/C335A): as the sequence (P00183 2-415 Y97A/C335A) above
T5 sequence (P00259 whole entry, further chain): as the sequence (P00259 whole entry, further chain) above
T5 sequence (P16640 whole entry, further chain): as the sequence (P16640 whole entry, further chain) above
T2 sequence (P00183 2-415 Y97L/C335A): as the sequence (P00183 2-415 Y97A/C335A) above, with A96L counted along it
T2 sequence (P16640 whole entry, further chain): as the sequence (P16640 whole entry, further chain) above
T2 sequence (P00259 whole entry, further chain): as the sequence (P00259 whole entry, further chain) above

Row | Molecule | Turnover rate (NADH consumption rate) Wild type [6] | Turnover rate (NADH consumption rate) Y96A [7] | Wild type Vs DTT [8] | Mutant Y96A Vs DTT [9] | Mutant Y96A ΔSpin high/low [9] | dimerisation and aggregation upon storage [10] | presence of protein dimer [11] | other results
1 | O[C@H]1CC[C@H](c2ccccc2)CC1 [Trans-4-ol] | – | – | – | – | – | – | – | Products (%) WT [1]: 25%; Products (%) Y96L [2]: 23%; Products(%) Y96F [3]: 6%; Products (%) Y96V [4]: 10%; Products(%) Y96A [5]: 15%
2 | CCCCCCC [n-Heptane] | 2.7 nmole NADH/nmole P450cam/s | 4.4 nmole NADH/nmole P450cam/s | 5 | 40 | 60 | – | – | Wild type ΔSpin high/low ([8]; -- = no shift, nd = not determined): 5
3 | CCCCCCCC [n-Octane] | background | 5.8 nmole NADH/nmole P450cam/s | 5 | 45 | 80 | – | – | –
4 | CCCCC [n-Pentane] | background | 5.8 nmole NADH/nmole P450cam/s | 5 | 40 | 55 | – | – | –
5 | B1 | – | – | – | – | – | dimerisation as well as aggregation | dimer was detected | –
6 | B2 | – | – | – | – | – | dimerisation as well as aggregation | dimer was detected | –
7 | B3 | – | – | – | – | – | dimerisation as well as aggregation | dimer was detected | –
8 | B4 | – | – | – | – | – | dimerisation as well as aggregation | dimer was detected | –
9 | B5 | – | – | – | – | – | dimerisation as well as aggregation | dimer was detected | –
